Measurements from patent US20030040105A1, “Microfluidic micromixer” (priority 1999, published 2003).

Molecular target: T1, streptavidin coated bead bearing fluorescein biotin (Streptomyces avidinii, UniProt P22629)
T1 construct: purchased Spherotech Inc., Libertyville, Ill
Experiment: unquenching of fluorescein biotin streptavidin beads by native biotin, flow cytometry
Format: binding
Settings: streptavidin beads with quenched fluorescein biotin, typical
Experimental: Data are plotted as mean channel fluorescence (MCF) versus time for several concentrations of biotin. The binding of fluorescein biotin to streptavidin-coated beads shown in FIG. 12A is characterized by the quenching of fluorescence of particles bound relative to free fluorescein biotin. The quenching is relieved when free biotin is added. The base line fluorescence indicated by the constant signal on the right signifies the “ostrich quenched” fluorescein biotin beads. Typically, this type of quenching, “ostrich quenching,” occurs when the fluorescein moiety associates with the streptavidin-binding pocket adjacent to the biotin-moiety bearing site FIG. 12A. […] The subsequent increase in fluorescence signal on right is caused by homogeneously mixing native biotin with the microspheres causing the unquenching of FITC-biotin in the streptavidin receptor pocket on the bead surface.
A 200 μL volume suspension of streptavidin coated beads (3.7×10^7 beads/mL) was diluted to 4 mL in TRIS buffer, (100 mM Tris HCl, 150 mM NaCl, 0.1% BSA, 0.02% sodium azide, pH 7.5). Subsequently, 1.0 μL of 8.7×10^−6 M fluorescein biotin solution was added to the beads. The sample was continuously agitated for 20 minutes, then centrifuged and resuspended in 6.0 mL of buffer. The final bead suspension comprised of ˜1.1 million beads/mL with a million fluorescein biotin molecules per bead. […]

T1 sequence (P22629 25-183): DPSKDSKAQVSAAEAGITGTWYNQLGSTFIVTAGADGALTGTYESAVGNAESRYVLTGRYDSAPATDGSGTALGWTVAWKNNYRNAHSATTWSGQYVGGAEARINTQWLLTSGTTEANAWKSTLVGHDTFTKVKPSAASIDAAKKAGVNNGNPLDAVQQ

Q: How did the “increase in fluorescence intensity after mixing with excess native biotin” value turn out when `O=C(O)CCCC[C@@H]1SC[C@@H]2NC(=O)N[C@@H]21` [native biotin, Biotin] was run?
A: eight-fold increase
